Data on 16 compounds can be found in US4183940A, “Antimycotic imidazolyl-9,10-dihydro-anthracene derivatives” (Bayer Aktiengesellschaft, priority 1976, dated 1980).

The subject of one assay is Aspergillus species. Put plainly: Antimycotic in vitro activity (series dilution test), Aspergillus species. The format is cell-based. As to conditions: Sabouraud's milieu d'epreuve, 28° C., 24 to 96 hours; for MIC: Aspergillus, read-out: MIC values in γ/ml of nutrient medium for Aspergillus species. The protocol: (§1) The invitro tests were carried out in a series dilution test with germ inocula of an average of 5×10^4 germs/ml of substrate. The nutrient medium was (a) for dermatophytes and moulds: Sabouraud's milieu d 'epreuve and (b) for yeasts: meat extract/glucose broth. The incubation temperature was 28° C. and the duration of incubation was 24 to 96 hours.

The subject of assay [1] is Trichophyton mentagrophytes. Put plainly: Antimycotic in vitro activity (series dilution test), Trichophyton mentagrophytes. The format is cell-based. The settings on record: Sabouraud's milieu d'epreuve, 28° C., 24 to 96 hours; for MIC: Trichophyton mentagrophytes, read-out: MIC values in γ/ml of nutrient medium for Trichophyton mentagrophytes. As for the experimental part: as §1

The test system of a further assay is Microsporon felineum. Kind of assay: Antimycotic in vitro activity (series dilution test), Microsporon felineum. The format is cell-based. As to conditions: Sabouraud's milieu d'epreuve, 28° C., 24 to 96 hours; for MIC: read-out: MIC values in γ/ml of nutrient medium for Microsporon felineum. As for the experimental part: as §1
Another assay deals with Penicillium commune. Kind of assay: Antimycotic in vitro activity (series dilution test), Penicillium commune. In kind it is cell-based. As to conditions: Sabouraud's milieu d'epreuve, 28° C., 24 to 96 hours; for MIC: Penicillium commune, read-out: MIC values in γ/ml of nutrient medium for Penicillium commune. The protocol: as §1
The next assay concerns Candida albicans. Put plainly: Antimycotic in vitro activity (series dilution test), Candida albicans. The format is cell-based. The settings on record: meat extract/glucose broth, 28° C., 24 to 96 hours; for MIC: Candida albicans, read-out: MIC values in γ/ml of nutrient medium for Candida albicans. As for the experimental part:
as §1

The subject of another assay is Candida. Put plainly: Antimycotic in vivo activity (oral) in candidosis of mice. Further details: key: +++++: very good action=≥90% of survivors on the 6th day after infection; ++++: good action=≥80% of survivors on the 6th day after infection; +++: action=≥60% of survivors on the 6th day after infection; ++: poor action=≥40% of survivors on the 6th day after infection; +: trace of action; n.a.: no action. The settings on record: mice SPF-CF1, i.v. infection with Candida, 100 mg/kg oral one hour before and seven hours after infection. The protocol: Mice of the type SPF-CF1 were infected intravenously with 1-2×10^6 logarithmically growing Candida cells, which were suspended in physiological sodium chloride solution. The animals were treated orally one hour before and seven hours after the infection with, in each case, 100 mg/kg of body weight of the formulations.
Untreated animals died from the infection 2 to 6 days after infection. The survival rate on the 6th day after infection was about 5% in the case of the untreated control animals.

Converted amounts (≈) assume the structure as drawn.

In the case of `CSc1ccc(C2(n3ccnc3)c3ccccc3CCc3ccccc32)cc1` [reference compound], the MIC is > 100 µg/mL in the assay with Aspergillus species, 10 µg/mL (≈ 26.1 µM) in assay [1], 40 µg/mL (≈ 105 µM) in the assay with Microsporon felineum and > 100 µg/mL in the assay on Penicillium commune.
Consider `Cc1ccc(C2(n3ccnc3)c3ccccc3C(=O)c3ccccc32)cc1` [drawing 24], for which the MIC is 64 µg/mL (≈ 183 µM) in the assay with Candida albicans, > 64 µg/mL in the assay on Aspergillus species, < 1 µg/mL in assay [1] and 8 µg/mL (≈ 22.8 µM) with Microsporon felineum. For the same compound, in the assay with Penicillium commune, the “MIC values in γ/ml of nutrient medium for Penicillium commune” value (“MIC values … for Penicillium commune” below) amounted to 64 µg/mL.
Turning to `c1ccc(C2(n3ccnc3)c3ccccc3C(c3ccccc3)(n3ccnc3)c3ccccc32)cc1` (stereo not drawn) [drawing 26], the MIC is 4 µg/mL (≈ 8.61 µM) in the assay with Candida albicans, 32 µg/mL (≈ 68.9 µM) in assay [1] and > 64 µg/mL in the assay with Penicillium commune.
For `c1ccc(C2(n3ccnc3)c3ccccc3C(c3ccccc3)(n3ccnc3)c3ccccc32)cc1` (stereo not drawn) [drawing 32], the “Action (survivors on the 6th day after infection)” value (from here on “Action”) in the assay on Candida is “++ (poor action=≥40% of survivors on the 6th day after infection)”.
For the compound `O=C1c2ccccc2C(c2ccccc2)(n2ccnc2)c2ccccc21` [drawing 20], in the assay with Candida albicans, the “MIC values in γ/ml of nutrient medium for Candida albicans” value (“MIC values … for Candida albicans” for short) is > 64 µg/mL. Moreover, the “MIC values in γ/ml of nutrient medium for Aspergillus species” value (from here on “MIC values … for Aspergillus species”) against Aspergillus species stood at 64 µg/mL. In addition, the “MIC values in γ/ml of nutrient medium for Trichophyton mentagrophytes” value (“MIC values … for Trichophyton mentagrophytes” for short) in assay [1] is < 1 µg/mL. Besides, the “MIC values in γ/ml of nutrient medium for Microsporon felineum” value (shortened to “MIC values … for Microsporon felineum”) in the assay with Microsporon felineum came to 4 µg/mL. Also, in the assay with Penicillium commune, the “MIC values … for Penicillium commune” value turned out to be 8 µg/mL.
On to `O=C1c2ccccc2C(c2ccccc2)(n2ccnc2)c2ccccc21` [drawing 19], for which the “MIC values … for Candida albicans” value in the assay with Candida albicans was determined as 8 µg/mL. Moreover, the “MIC values … for Aspergillus species” value against Aspergillus species stood at 32 µg/mL. Further, in assay [1], the “MIC values … for Trichophyton mentagrophytes” value is < 1 µg/mL. Moreover, the “MIC values … for Microsporon felineum” value against Microsporon felineum is < 1 µg/mL. In the assay with Penicillium commune, the “MIC values … for Penicillium commune” value amounted to 8 µg/mL.
Take `CSc1ccc(C2(n3ccnc3)c3ccccc3-c3ccccc32)cc1` [reference compound]: the MIC in the assay on Candida albicans is 100 µg/mL (≈ 282 µM); in the assay with Aspergillus species it was > 100 µg/mL; in assay [1], < 4 µg/mL; in the assay with Microsporon felineum it was 20 µg/mL (≈ 56.4 µM); in the assay with Penicillium commune, > 100 µg/mL.
For the compound `Cc1ccccc1C1(n2ccnc2)c2ccccc2C(=O)c2ccccc21` [drawing 22], the MIC in the assay with Candida albicans is > 64 µg/mL; with Aspergillus species, > 64 µg/mL; in assay [1], < 1 µg/mL; in the assay with Microsporon felineum, < 1 µg/mL. In the assay on Penicillium commune, the “MIC values … for Penicillium commune” value is > 64 µg/mL.
Consider `c1ccc(C2(n3ccnc3)c3ccccc3Oc3ccccc32)cc1` [reference compound], for which the MIC in the assay with Candida albicans is 20 µg/mL (≈ 61.7 µM); in assay [1], > 100 µg/mL; in the assay on Microsporon felineum, > 100 µg/mL; in the assay on Penicillium commune, 100 µg/mL (≈ 308 µM).
Regarding `Cc1ccccc1C1(n2ccnc2)c2ccccc2C(=O)c2ccccc21` [drawing 23], the “MIC values … for Candida albicans” value in the assay on Candida albicans was determined as 32 µg/mL. Further, the “MIC values … for Aspergillus species” value against Aspergillus species was > 64 µg/mL. For the same compound, the “MIC values … for Trichophyton mentagrophytes” value in assay [1] was < 1 µg/mL. In addition, the “MIC values … for Microsporon felineum” value in the assay on Microsporon felineum was 1 µg/mL. Also, the “MIC values … for Penicillium commune” value with Penicillium commune stood at 4 µg/mL.
As for `O=C1c2ccccc2C(c2ccccc2)(n2ccnc2)c2ccccc21` [drawing 31], in the assay on Candida, the “Action” value is “+++ (action=≥60% of survivors on the 6th day after infection)”.
Take `O=C1c2ccccc2C(c2ccccc2)(n2ccnc2)c2ccccc21` [drawing 21]: the “MIC values … for Candida albicans” value against Candida albicans was > 64 µg/mL. Besides, in the assay on Aspergillus species, the “MIC values … for Aspergillus species” value came out at 32 µg/mL. The “MIC values … for Trichophyton mentagrophytes” value in assay [1] was < 1 µg/mL. Also, the “MIC values … for Microsporon felineum” value in the assay on Microsporon felineum is 4 µg/mL. Also, the “MIC values … for Penicillium commune” value against Penicillium commune was found to be 8 µg/mL.
Take `Cc1ccccc1C1(n2ccnc2)c2ccccc2C(=O)c2ccccc21` [drawing 35]: the “Action” value in the assay on Candida is reported as “+”.
As for `O=C1c2ccccc2C(c2ccccc2)(n2ccnc2)c2ccccc21` [drawing 18], the “MIC values … for Candida albicans” value in the assay with Candida albicans worked out at 4 µg/mL. The “MIC values … for Aspergillus species” value with Aspergillus species came out at 4 µg/mL. Moreover, the MIC in assay [1] is < 1 µg/mL; with Penicillium commune, 4 µg/mL (≈ 11.9 µM). For the same compound, the “MIC values … for Microsporon felineum” value against Microsporon felineum came out at 8 µg/mL.
Consider `Cc1ccc(C2(n3ccnc3)c3ccccc3C(=O)c3ccccc32)cc1` [drawing 25], for which, in the assay with Candida albicans, the “MIC values … for Candida albicans” value is > 64 µg/mL. Also, the “MIC values … for Aspergillus species” value with Aspergillus species was > 64 µg/mL. Moreover, in assay [1], the “MIC values … for Trichophyton mentagrophytes” value was < 1 µg/mL. Further, the “MIC values … for Microsporon felineum” value against Microsporon felineum is 4 µg/mL. Besides, in the assay with Penicillium commune, the “MIC values … for Penicillium commune” value came to 8 µg/mL.
With `c1ccc(C2(n3ccnc3)c3ccccc3Sc3ccccc32)cc1` [reference compound], the MIC in the assay on Candida albicans is 40 µg/mL (≈ 117 µM); in assay [1], > 100 µg/mL; with Microsporon felineum it was > 100 µg/mL; in the assay with Penicillium commune, > 100 µg/mL.
